Experimental data: ChEMBL document CHEMBL2331303, “N-(Phenoxyalkyl)amides as MT(1) and MT(2) ligands: antioxidant properties and inhibition of Ca(2+)/CaM-dependent kinase II” (Bioorg Med Chem, 2013)
pIC50: −log10 of the molar value. Activity calls are given as the source filed them. The rule behind the calls is not given here.

Columns and labels:
[1] = Inhibition of active recombinant full-length CaMK2 (unknown origin) using Autocamtide substrate and [gamma32P]ATP after 30 mins by scintillation counting method; design: species or system Homo sapiens
[2] = test system: Radical scavenging activity; assay: Antioxidant activity assessed as DPPH radical scavenging activity at 1 mM; type: functional
[3] = test system: Radical scavenging activity; assay: Antioxidant activity assessed as DPPH radical scavenging activity at 5.5 mM; type: functional
[4] = test system: Radical scavenging activity; assay: Antioxidant activity assessed as DPPH radical scavenging activity at 0.1 mM; type: functional
[5] = test system: HepG2; assay: Antioxidant activity in human HepG2 cells assessed as reduction in H2O2-induced oxidation by DCFH-DA assay; type: functional, cell-based
[6] = test system: HepG2; assay: Cytoprotective activity in human HepG2 cells assessed as reduction in H2O2-induced cell death at 10 to 100 ug/mL incubated for 2 hrs by MTT assay; type: functional, cell-based
[7] = test system: HepG2; assay: Cytoprotective activity in human HepG2 cells assessed as reduction in H2O2-induced cell death at 100 ug/mL incubated for 2 hrs by MTT assay; type: functional; design: scale not given: the % may be the effect or the level left
[8] = test system: Radical scavenging activity; assay: Antioxidant activity assessed as DPPH radical scavenging activity; type: functional; details: dose or concentration not given here

SMILES	pIC50 [1]	inhibition [2] [%]	inhibition [3] [%]	inhibition [4] [%]	pIC50 [5]	other results
COc1cccc(O[C@@H](C)CNC(=O)C2CC2)c1	3.93					
CCCC(=O)NC[C@H](C)Oc1cccc(OC)c1	4.11	1.3	15.1	2.8	< 3.00	
COc1cccc(OC(C)CNC(C)=O)c1 (racemic)					< 3.00	
CC(=O)NCCOc1ccccc1					< 3.00	
CCCC(=O)NC[C@@H](C)Oc1cccc(OC)c1	3.89	5.1	20.7	5.6	3.74	Activity [6]: Active; Activity [7]: 100%
O=C(O)c1cc(O)c(O)c(O)c1				97.1		inhibition [8]: 6%
COc1ccc2[nH]cc(CCNC(C)=O)c2c1 [MELATONIN]	3.89	7.8	31.8	2.1	3.57	
CCCC(=O)NCC(C)Oc1cccc(OC)c1 (racemic)	3.91	4.05	11.7	3.22	3.65	Activity [6]: Active
CC(=O)NC(C)COc1ccccc1 (racemic)					< 3.00	
CC(=O)NCC(C)Oc1ccccc1 (racemic)					< 3.00	
COc1cccc(O[C@H](C)CNC(=O)C2CC2)c1	3.89					
COc1cccc(OC(C)CNC(=O)C2CC2)c1 (racemic)	3.97				< 3.00	
